The test system of assay [1] is AtT-20 pituitary corticotroph tumor cells. The assay is described as follows: ACTH production and POMC expression in AtT-20 cells. The assay is classed as cell-based, mouse. The settings on record: pterostilbene 15 μM. On the procedure: FIG. 3. Pterostilbene bioavailability in brain and the pituitary gland, and its effect on ACTH synthesis and POMC expression in AtT-20 cells. […] (B) Effect of pterostilbene on ACTH production by AtT-20 cells in a 24 h-period (measured between 24-48 h or between 48-72 h). […] After the 30 min period, culture flasks were washed out (three times with PBS) and the medium was renewed (controls received identical treatment).
Plasma levels of ACTH (Calbiotech, Inc., Spring Valley, Calif.), corticosterone (Kamiyama Biomedical Co., Seattle, Wash.), and NORA (IBL, Hamburg, Germany) were quantified by ELISA according to the instructions of the suppliers.
RT-PCR and detection of mRNA was performed as described above. For Western blotting (see also above) POMC mouse monoclonal antibody (clone 2B2) from Origen (Rockville, Md.) were used.

Assay [2] concerns A2058 cells isolated from tumor-bearing mice. The assay is described as follows: Chemosensitization of cultured A2058 cells isolated from xenografts. It counts as cell-based, human. Conditions: A2058; 72 h-cultured; PL 1 μM, Chemo 0.25 μM PAC.PBP; Pter = in vivo pretreatment. The protocol:
FIG. 5. Chemosensitization effect of GSH depletion (A) or sod1-AS (B) in melanoma cells isolated from Pter-treated mice. Melanoma cells were cultured as in FIG. 1C. PAC.PBP (100 ng/ml) was added to the culture flasks 24 h after seeding. […] Data are mean values±SD for 5-6 different experiments (*p<0.01, comparing all experimental conditions vs controls).
FIGS. 18-25. Effect of piperlongumine and I-BET762, as GSH depleting and chemosensitizing agents, in in vitro growing human melanoma, pancreatic, breast, lung, liver, prostate, ovarian, and colorectal cancer cells. Cancer cells, isolated from Pter-treated tumor-bearing mice, were cultured as indicated under Methods. Chemotherapy (0.25 μM PAC.PBP in A2058 melanoma and MDA-MB-231 breast carcinoma cells; 0.125 μM PAC.PBP and 25 μM GTB in AsPC-1 pancreatic cancer cells; 1 μM VRB and 15 μM cisPt in A459 lung carcinoma cells; 0.15 μM DXR in HepG2 hepatocellular carcinoma cells; 15 nM DCT in PC-3 prostate carcinoma cells; 0.15 μM PAC.PBP and 25 μM CarboPt in SK-OV-3 ovarian carcinoma cells; 3 μM 5-FU, 1 μM FA and 0.6 μM IRI in HT-29 colorectal carcinoma cells) was added to the cultured flasks 24 h after seeding. PL (1 μM in A2058 and AsPC-1 cells; 0.5 μM in A549 and HT-29 cells; 0.2 μM in HepG2, PC-3, and SK-OV-3 cells; 0.1 μM in MDA-MB-231 cells) or I-BET762 (0.5 μM in HT-29 cells; 0.2 μM in A2058, AsPC-1, HepG2, PC-3, and SK-OV-3 cells; 0.1 μM in A549 and MDA-MB-231 cells) were added 6 h later. Data are mean values±SD for 4-5 different experiments per cell line (*p<0.05 and **p<0.01, comparing all experimental conditions versus control. PL, piperlongumine; PAC.PBP, paclitaxel protein-bound particles; GTB, gemcitabine; DXR, doxorubicin; VRB, vinorelbin; CisPt, cisplatin; docetaxel, DCT; CarboPt, carboplatin; 5-FU, 5-fluoracil; FA, folinic acid; IRI, irinotecan; 5-FU+FA+IRI=FOLFIRI).
Human A2058, MeWo and MelJuso melanoma cells, and mouse AtT-20 pituitary corticotroph tumor cells were from the American Type Culture Collection (ATCC). Human HEMa-LP epidermal melanocytes were from Life Technologies (Grand Island, N.Y.). Human MDA-MB-231 (triple negative: ER−, PR−, HER2−) and MCF-7 (ER+, PR+, HER2−) breast adenocarcinoma, A549 lung adenocarcinoma (NSCLC), HepG2 hepatocellular carcinoma, LNCaP (AR+) and PC-3 (AR−) prostate adenocarcinoma, SK-OV-3 epithelial ovarian carcinoma, and HT-29 and Caco-2 colorectal carcinoma cells were from the American Type Culture Collection. Cells were grown in Dulbecco's modified Eagle's medium (DMEM) (Invitrogen, San Diego, Calif.), pH 7.4, supplemented with 10% heat-inactivated FCS (Biochrom KG, Berlin, Germany), 100 units/ml penicillin and 100 μg/ml streptomycin. Cells were plated, at a density of 20,000 cells/cm2, and cultured at 37° C. in a humidified atmosphere with 5% CO2. Cells were harvested by incubation for 5 min with 0.05% (w/v) trypsin (Sigma, St. Louis, Mo.) in PBS (10 mM sodium phosphate, 4 mM KCl, 137 mM NaCl), pH 7.4, containing 0.3 mM EDTA, followed by the addition of 10% FCS to inactivate the trypsin. Cell numbers were determined using a Coulter Counter (Coulter Electronic Inc., Miami, Fla.). Cells were allowed to attach for 12 h before any treatment addition. Cellular viability was assessed as previously reported (Mena, S. et al. Clin Cancer Res 13, 2658-2666 (2007)), by measuring trypan blue exclusion and leakage of lactate dehydrogenase activity.
Isolation of Tumor Cells from Mouse Xenografts Using Enzymatic Digestion and a double Ficoll gradient. […]
On the technique in general: In xenograft studies the graft and the host belong to different species.

For the compound `COc1cc(/C=C/c2ccc(O)cc2)cc(OC)c1` [Pter, trans-3,5-dimethoxy-4′-hydroxystilbene], in assay [1] (30 min every 24 h, CRH 100 nM), the “ACTH production by AtT-20 cells” value is “decreases”. In assay [1] (72 h of culture), the “POMC expression and levels in AtT-20 cells” value is given as “decreased”. Further, in assay [2], the Viable cells is on record as 1015 ± 144 ×10^6.

The values above are taken from US11179348B2, “Combination comprising pterostilbene for the treatment of cancer” (FUNDACIÓN UNIVERSIDAD CATÓLICA DE VALENCIA SAN VICENTE …, priority 2015, dated 2021).
